From US9550792B2, “Polycyclic substituted pyrazole kinase activity inhibitors and use thereof” (priority 2013, dated 2017)
Several values for one entry are separate records, joined by “and”; a condition that tells them apart may be missing. Equal entries are not always repeated. Where two headings read alike, the source gives them in different places.

Columns and labels:
[1] = tested on: lung cancer cell line A549; assay: Anti-tumor activity in vitro, MTT method; details: Homo sapiens, A549, 48 h, read-out: A549 (IC50/μM)
Procedure: (§1) MTT method: the dehydrogenase associated with NADP in the mitochondria of living cell is capable of reducing exogenous MTT into insoluble bluish violet crystal (Formazan), which is precipitated in the cell. […] DMSO or Triple liquid (10% SDS-5% isobutanol-0.01 mol/L HCl) is used to dissolve the crystal in the cell. The OD determined at 570 nm by a microplate reader can reflect the amount of the living cell indirectly.
(§2) The crystal is dissolved with DMSO and the detection is performed on a microplate reader.

[2] = tested on: umbilical cord vein endothelium cell line HUVEC; assay: Anti-tumor activity in vitro, MTT method; details: Homo sapiens, 48 h, read-out: HUVEC (IC50/μM)
Procedure: as §1, §2

[3] = tested on: breast cancer cell line MCF-7; assay: Anti-tumor activity in vitro, MTT method; details: Homo sapiens, MCF7, 48 h, read-out: MCF7 (IC50/μM)
Procedure: as §1, §2

[4] = tested on: stomach cancer cell line BSG823; assay: Anti-tumor activity in vitro, MTT method; details: 48 h, read-out: BSG823 (IC50/μM)
Procedure: as §1, §2

[5] = tested on: stomach cancer cell line MGC803; assay: Anti-tumor activity in vitro, MTT method; details: Homo sapiens, MGC-803, 48 h, read-out: MGC803 (IC50/μM)
Procedure: as §1, §2

[6] = tested on: resistant breast cancer cell line MCF-7; assay: Anti-tumor activity in vitro, MTT method; details: Homo sapiens, MCF7, 48 h, read-out: Resistant MCF7 (IC50/μM)
Procedure: as §1, §2

leukemia cell line NB4 = assay: Anti-tumor activity in vitro, MTT method; details: 48 h, read-out: NB4 (IC50/μM)
Procedure: as §1, §2

[7] = Pharmacokinetics after single oral dose in rats; assay type: in vivo, Wistar rat
Procedure: 300 μL blood collected from the rat was mixed with 30 μL methanol and 2 mL ethyl acetate. The samples were vortexed for 3 min and centrifuged at 4000 rpm for 15 min. The supernatant was introduced into another centrifugal tube. The lower layer was repeatedly extracted and then the supernatants were combined and dried with nitrogen gas. After redissolution with 150 μL methanol, they were filtered by 0.22 μm membrane and then subjected to analysis with a injection volume of 20 μL.
An amount of compound was taken accurately to prepare CMC-Na aqueous solution containing 3 mg/mL of drug. 12 healthy male Wister rats were randomly assigned to two groups, each group including 6 rats. The first group was administrated orally compound 1. The second group was administrated orally compound 2. The doses were both 30 mg/kg (corresponding to 2 mL for each rat). The rats were fasting for 12 h before administration and free access to water. 0.6 mL blood samples were collected at 0.5, 1, 1.5, 2, 2.5, 3, 5, 8, 12 and 24 h after drug administration from the venous sinuses and added into EP tubes which were rinsed with heparin sodium previously. The samples were centrifuged at 4,000 r/min for 15 min and the upper plasma were obtained. 300 μL plasma was subjected to analysis and the chromatogram and peak area were recorded. The plasma concentrations of compounds 1 and 2 were calculated to give average concentration-time curve.
DAS 2.0 program was used to analyze plasma concentration vs. time data after s single oral dose (Table 6, 7). Fitting and the AIC methods were used to determine the model. The analysis was based on the principle that the larger fitting and the smaller AIC, the better model. The oral administration was consistent with the two-compartment model. The statistical distance parameter is used to compare the 2 compounds for the pharmacokinetic parameters.

S180 grafting tumor = assay: Inhibition to S180 grafting tumor in animal; assay type: in vivo, ICR mouse; details: for Body weight After administration / Tumor inhibition / Tumor weight: 7 administrations; for Tumor inhibition / Tumor weight: d8
Procedure: ICR mouse was inoculated with solid tumor according to tumor grafting process (tumor piece was weighed under sterile condition, homogenized with glass tissue homogenizer, placed within a sterile container, to which was added physiological saline to prepare 1:3 cell suspension. The container was placed on ice and aspirated and the cells were mixed homogeneously before each aspiration. Each mouse was inoculated subcutaneously 0.2 mL at right fore axilla). […] The mice were administered intravenously, once a day and 7 administrations in total. The administration volume was 0.4 ml/20 g. The mice bearing tumor were sacrificed 8 days after inoculation (d8). The tumor tissue was separated and weighed. The data was analyzed with statistics method (t-test).
Dose setting: 5 groups in total.

[8] = Measurement of water solubility; assay type: physicochemical; details: thermodynamic from solid, distilled water, 25° C.
Procedure: An excess quantity of sample was added into a 50 mL triangular flask, to which 10 mL distilled water was added, and then the flask was vibrated in a Constant Temperature Vibrator at 25° C. for 72 h. The solution was centrifuged at 10000 r/min for 15 min and then the supernatant was filtrated with […] microfiltration membrane to remove undissolved drug. 2 mL filtrate was metered with methanol to 10 ml. The content of drug was determined with 20 μL sample injection.

leukemia cell line K562 = assay: Anti-tumor activity in vitro, MTT method; details: Homo sapiens, K562, 48 h, read-out: K562 (IC50/μM)
Procedure: as §1, §2

[9] = tested on: breast cancer cell line MDA231; assay: Anti-tumor activity in vitro, MTT method; details: Homo sapiens, MDA-MB-231, 48 h, read-out: MDA231 (IC50/μM)
Procedure: as §1, §2

[10] = tested on: liver cancer cell line HEPG2; assay: Anti-tumor activity in vitro, MTT method; details: Homo sapiens, HepG2, 48 h, read-out: HEPG2 (IC50/μM)
Procedure: as §1, §2

[11] = male, Wistar, plasma, rat, oral 30 mg/kg
[12] = 7.5 mg/kg intravenously once a day
[13] = 15 mg/kg intravenously once a day
[14] = 30 mg/kg intravenously once a day

`CN1CCN(Cc2ccc(NC(=O)c3n[nH]cc3Nc3ncnc4sccc34)cc2)CC1` [Compound I-1, 4-(4-thieno[2,3-d]pyrimidinylamino)-N-(4-((4-methyl-1-piperazinyl)methyl)phenyl)-1H-3-pyrazole carboxamide] showed an IC50 [1] of 50.3 µM, an IC50 [2] of 2.54 µM and an IC50 [3] of 0.42 µM. For the same compound, the IC50 [4] was 20.7 µM, the IC50 [5] was 2.27 µM and the IC50 [6] was 3.73 µM. It also gave an IC50 (leukemia cell line NB4) of 0.74 µM, a Cmax [7, 11] of 241 ± 103 ng/mL and a Tmax [7, 11] of 5.5 ± 2.29 h. The half-life [7, 11] was 45.8 ± 29.1 h, the AUC(0-t) ([7]; male, Wistar, plasma, rat, oral 30 mg/kg, read-out: AUC 0-24) was 3350 ± 468 ng·h/mL and the MRT last ([7]; male, Wistar, plasma, rat, oral 30 mg/kg, read-out: MRT 0-24) was 11.6 ± 1.09 h. The concentration at 0.5 h ([7]; male, Wistar, rat, plasma, po, 30 mg/kg, mean of rats, oral 30 mg/kg, time 0.5 h, read-out: Plasma concentration, mean) was 72.7 ng/mL, the concentration at 1 h ([7]; male, Wistar, rat, plasma, po, 30 mg/kg, mean of rats, oral 30 mg/kg, time 1 h, read-out: Plasma concentration, mean) was 82.8 ng/mL and the concentration at 2 h ([7]; male, Wistar, rat, plasma, po, 30 mg/kg, mean of rats, oral 30 mg/kg, time 2 h, read-out: Plasma concentration, mean) was 103 ng/mL. It also gave a concentration at 2.5 h ([7]; male, Wistar, rat, plasma, po, 30 mg/kg, mean of rats, oral 30 mg/kg, time 2.5 h, read-out: Plasma concentration, mean) of 113 ng/mL, a concentration at 3 h ([7]; male, Wistar, rat, plasma, po, 30 mg/kg, mean of rats, oral 30 mg/kg, time 3 h) of 154 ng/mL and a concentration at 5 h ([7]; male, Wistar, rat, plasma, po, 30 mg/kg, mean of rats, oral 30 mg/kg, time 5 h) of 164 ng/mL. For the same compound, the concentration at 8 h ([7]; male, Wistar, rat, plasma, po, 30 mg/kg, mean of rats, oral 30 mg/kg, time 8 h, read-out: Plasma concentration, mean) was 195 ng/mL, the concentration at 12 h ([7]; male, Wistar, rat, plasma, po, 30 mg/kg, mean of rats, oral 30 mg/kg, time 12 h, read-out: Plasma concentration, mean) was 134 ng/mL and the concentration at 24 h ([7]; male, Wistar, rat, plasma, po, 30 mg/kg, mean of rats, oral 30 mg/kg, time 24 h) was 123 ng/mL. The concentration at 0.5 h ([7]; male, Wistar, rat, plasma, po, 30 mg/kg, rat No. 1-6, oral 30 mg/kg, time 0.5 h, read-out: Plasma concentration, individual rats) was 68.8 ng/mL, the concentration at 1 h ([7]; male, Wistar, rat, plasma, po, 30 mg/kg, rat No. 1-6, oral 30 mg/kg, time 1 h, read-out: Plasma concentration, individual rats) was 105 ng/mL and the concentration at 2 h ([7]; male, Wistar, rat, plasma, po, 30 mg/kg, rat No. 1-6, oral 30 mg/kg, time 2 h, read-out: Plasma concentration, individual rats) was 114 ng/mL. For the same compound, the concentration at 2.5 h ([7]; male, Wistar, rat, plasma, po, 30 mg/kg, rat No. 1-6, oral 30 mg/kg, time 2.5 h, read-out: Plasma concentration, individual rats) was 100 ng/mL, the concentration at 8 h ([7]; male, Wistar, rat, plasma, po, 30 mg/kg, rat No. 1-6, oral 30 mg/kg, time 8 h, read-out: Plasma concentration, individual rats) was 157 ng/mL and the concentration at 12 h ([7]; male, Wistar, rat, plasma, po, 30 mg/kg, rat No. 1-6, oral 30 mg/kg, time 12 h, read-out: Plasma concentration, individual rats) was 108 ng/mL. The “Plasma concentration, individual rats” value ([7]; rat No. 1-6, oral 30 mg/kg, time 0.5 h, 30 mg/kg) was 68.95 ng*ml/1 and 65.08 ng*ml/1 and 76.41 ng*ml/1 and 80.51 ng*ml/1 and 76.52 ng*ml/1, the “Plasma concentration, individual rats” value ([7]; rat No. 1-6, oral 30 mg/kg, time 1 h, 30 mg/kg) was 65.58 ng*ml/1 and 73.81 ng*ml/1 and 81.17 ng*ml/1 and 80.91 ng*ml/1 and 90.92 ng*ml/1 and the “Plasma concentration, individual rats” value ([7]; rat No. 1-6, oral 30 mg/kg, time 2 h, 30 mg/kg) was 97.96 ng*ml/1 and 100.94 ng*ml/1 and 86.23 ng*ml/1 and 86.97 ng*ml/1 and 132.81 ng*ml/1. For the same compound, the “Plasma concentration, individual rats” value ([7]; rat No. 1-6, oral 30 mg/kg, time 2.5 h, 30 mg/kg) was 96.8 ng*ml/1 and 113.35 ng*ml/1 and 104.16 ng*ml/1 and 106.91 ng*ml/1 and 158.41 ng*ml/1, the “Plasma concentration, individual rats” value ([7]; rat No. 1-6, oral 30 mg/kg, time 3 h, 30 mg/kg) was 149.67 ng*ml/1 and 112.43 ng*ml/1 and 125.86 ng*ml/1 and 78.87 ng*ml/1 and 266.46 ng*ml/1 and 191.06 ng*ml/1 and the “Plasma concentration, individual rats” value ([7]; rat No. 1-6, oral 30 mg/kg, time 5 h, 30 mg/kg) was 174.04 ng*ml/1 and 159.33 ng*ml/1 and 115.59 ng*ml/1 and 172.92 ng*ml/1 and 127.6 ng*ml/1 and 232.81 ng*ml/1. For the same compound, the “Plasma concentration, individual rats” value ([7]; rat No. 1-6, oral 30 mg/kg, time 8 h, 30 mg/kg) was 150.59 ng*ml/1 and 233.26 ng*ml/1 and 151.83 ng*ml/1 and 271.51 ng*ml/1 and 205.77 ng*ml/1, the “Plasma concentration, individual rats” value ([7]; rat No. 1-6, oral 30 mg/kg, time 12 h, 30 mg/kg) was 135.84 ng*ml/1 and 153.29 ng*ml/1 and 135.94 ng*ml/1 and 110.59 ng*ml/1 and 162.93 ng*ml/1 and the “Plasma concentration, individual rats” value ([7]; rat No. 1-6, oral 30 mg/kg, time 24 h, 30 mg/kg) was 126.6 ng*ml/1 and 105.83 ng*ml/1 and 167.23 ng*ml/1 and 133.16 ng*ml/1 and 79.81 ng*ml/1 and 123.91 ng*ml/1. The “pharmacokinetic parameters (in words)” value ([7]; rat, oral 30 mg/kg) was “acceptable”, the “Body weight After administration” value (S180 grafting tumor; [12]) was 24.00 ± 0.75 g and the Tumor inhibition (S180 grafting tumor; [12]) was 36.94%. For the same compound, the Tumor weight (S180 grafting tumor; [12]) was 0.74 ± 0.19 g, the “effect on S180 tumor growth compared to the model control group (in words)” value (S180 grafting tumor; 7.5 mg/kg, P<0.05) was “significant inhibitory effect” and the “Body weight After administration” value (S180 grafting tumor; [13]) was 20.00 ± 1.94 g. The Tumor inhibition (S180 grafting tumor; [13]) was 45.2%, the Tumor weight (S180 grafting tumor; [13]) was 0.63 ± 0.11 g and the “effect on S180 tumor growth compared to the model control group (in words)” value (S180 grafting tumor; 30 mg/kg and 15 mg/kg, P<0.01) was “very significant inhibitory effect”. The “effect on the body weight of experimental animals (in words)” value (S180 grafting tumor; 30 mg/kg and 15 mg/kg, P<0.05) was “significant inhibitory effect on the body weight”, the “Body weight After administration” value (S180 grafting tumor; [14]) was 20.43 ± 3.20 g and the Tumor inhibition (S180 grafting tumor; [14]) was 55.5%. For the same compound, the Tumor weight (S180 grafting tumor; [14]) was 0.52 ± 0.25 g, the solubility at 72 h [8] was < 0.1 µg/mL and the IC50 (leukemia cell line K562) was 3.2 µM. It also gave an IC50 [9] of 5.45 µM and an IC50 [10] of 25.2 µM.
